Data taken from US12043670B2, “Anti-BCMA antibody-drug conjugates and methods of use” (Eisai R&D Management Co., Ltd., priority 2020, dated 2024).

Experiments:
SF3b complex = biological target: T1, SF3b complex (Homo sapiens, UniProt O75533+Q7RTV0); experiment: SF3B1 binding / scintillation proximity assay (SPA); settings: competition with 2.5 nM [3H]-pladienolide B probe
T1 construct: endogenous in cells; host or cells: nuclear extracts
Procedure: A scintillation proximity assay was performed to measure the binding affinity of compounds (“payloads”) to the SF3b complex. Batch immobilization of anti-SF3B1 antibody (MBL) to anti-mouse PVT SPA scintillation beads (PerkinElmer) was prepared. For every 2.5 mg of nuclear extracts, 5 μg of anti-SF3B1 antibody and 1.5 mg of beads were mixed in 150 μL PBS. The antibody-bead mixture was incubated for 30 min at room temperature (RT) and centrifuged at 18,000 g for 5 min. 150 μL PBS was used to resuspend every 1.5 mg antibody-bead mixture. The beads were suspended and added to the prepared nuclear extracts. The slurry was incubated for 2 hours at 4° C. with gentle mixing. The beads were then collected by centrifuging at 18,000 g for 5 min, and washed twice with PBS+0.1% Triton X-100. After a final centrifugation step, every 1.5 mg of beads was suspended with 150 μL of PBS. SF3b complexes were tested for [^3H]-labeled pladienolide B probe binding ([^3H]-PB), synthesized as previously described (Kotake et al. (2007) Nat Chem Biol. 3(9):570-5). 100 μL binding reactions were prepared with 50 μL bead slurry and by adding varying concentrations of PB or PB-OH, and after 30 min pre-incubation, 2.5 nM of [^3H]-PB was added. The mixture was incubated for 30 min, and luminescence signals were read using a MicroBeta2 Plate Counter (PerkinElmer). […]

[1] = test system: splicing of Ad2.1 pre-mRNA in HeLa nuclear extract; experiment: In vitro splicing (IVS), qPCR readout, Ad2.1 substrate; type: biochemical
Procedure: (§1) To evaluate payload activity in a cell-free system, an in vitro splicing assay was performed. The payloads were incubated with nuclear extracts and pre-mRNA substrate minigenes.
(§2) HeLa nuclear extract preparation: HeLa S3 cell pellets were resuspended in hypotonic buffer (10 mM HEPES pH 7.9, 1.5 mM MgCl2, 10 mM KCl, 0.2 mM PMSF, 0.5 mM DTT) and the suspension was brought up to a total of 5 packed cell volume (PCV). After centrifugation, the supernatant was discarded, and the cells were brought up to 3 PCV with hypotonic buffer and incubated on ice for 10 min. Cells were lysed using a dounce homogenizer and then centrifuged. The supernatant was discarded, and the pellet was resuspended with ½ packed nuclear volume (PNV) of low salt buffer (20 mM HEPES pH 7.9, 1.5 mM MgCl2, 20 mM KCl, 0.2 mM EDTA, 25% glycerol, 0.2 mM PMSF, 0.5 mM DTT), followed by ½ PNV of high salt buffer (same as low salt buffer except 1.4 M KCl). The nuclei were gently mixed for 30 min before centrifuging. The supernatant (nuclear extract) was then dialyzed into storage buffer (20 mM HEPES pH 7.9, 100 mM KCl, 0.2 mM EDTA, 20% glycerol, 0.2 mM PMSF, 0.5 mM DTT). Protein concentration was determined using NanoDrop 8000 UV-Vis spectrophotometer (ThermoFisher Scientific). […]

[2] = test system: splicing of Ad2.2 pre-mRNA in HeLa nuclear extract; experiment: In vitro splicing (IVS), qPCR readout, Ad2.2 substrate; type: biochemical
Procedure: as §1, §2

MM1.S cells = experiment: CellTiter-Glo cell viability, MM1.S; type: cell-based, human; settings: MM1.S, 96 h
MM1.R cells = experiment: CellTiter-Glo cell viability, MM1.R; type: cell-based, human; settings: 96 h
OPM2 cells = experiment: CellTiter-Glo cell viability, OPM2 (normal serum); type: cell-based, human
MOLP8 cells = experiment: CellTiter-Glo cell viability, MOLP8; type: cell-based, human
Caco-2 permeability = type: in vitro ADME; settings: human
Procedure: Caco-2 cells were cultured for 21 days in transwell 24-well plates at 37° C., 95% humidity, 5% CO2. Integrity of cell monolayer was confirmed by TEER (transepithelial electrical resistance) and Lucifer yellow. Payloads were spiked in duplicate at 10 μM, separately, on both sides of the cell monolayer. Permeability rates from the apical to basolateral (A-B) direction and the basolateral to apical (B-A) direction were determined by sampling aliquots from both chambers immediately after treatment (t=0) and following incubation for 2 hours. Samples were protein precipitated with organic solvent containing internal standard and analyzed by LC-MS/MS (SCIEX; API 5500). The area ratio responses of payload/internal standard over time in both directions were used to generate permeability (cm/sec) values. Efflux ratio was calculated by dividing B-A/A-B. Control compounds for low and high permeability and efflux behaved as expected.

PAMPA permeability = type: in vitro ADME; settings: read-out: Stability, Mean, Perm PAMPA

CC[C@H](O)[C@@H](C)[C@H]1O[C@@H]1C[C@@](C)(O)/C=C/C=C(\C)[C@H]1OC(=O)C[C@H](O)CC[C@@](C)(OC(C)=O)[C@@H](OC(=O)N2CCNCC2)/C=C/[C@@H]1C [D2, (2S,3S,6S,7R,10R,E)-7-acetoxy-10-hydroxy-2-((R,2E,4E)-6-hydroxy-7-((2R,3R)-3-((2R,3S)-3-hydroxypentan-2-yl)oxiran-2-yl)-6-methylhepta-2,4-dien-2-yl)-3,7-dimethyl-12-oxooxacyclododec-4-en-6-ylpiperazine-1-carboxylate]
IC50 (SF3b complex): 12.6 nM
IC50 [1]: 27.3 nM
IC50 [2]: 119 nM
GI50 (MM1.S cells; Homo sapiens, read-out: CTGlo Mean GI50 MM1.S 96 h): 1.69 nM
CTGlo Mean LD50 MM1.S 96 h (MM1.S cells; payload alone): 7.74 nM
GI50 (MM1.R cells; Homo sapiens, MM.1R, read-out: CTGlo Mean GI50 MM1.R 96 h): 7.59 nM
CTGlo Mean LD50 MM1.R 96 h (MM1.R cells; payload alone, MM1.R): 21.4 nM
GI50 (OPM2 cells; Homo sapiens, OPM-2, 96 h, read-out: CTGlo Mean GI50 OPM2 96 h): 1.69 nM
CTGlo Mean LD50 OPM2 96 h (OPM2 cells; payload alone, OPM2, 96 h): 7.74 nM
GI50 (MOLP8 cells; Homo sapiens, MOLP-8, 96 h, read-out: CTGlo Mean GI50 MOLP8 96 h): 1.15 nM
CTGlo Mean LD50 MOLP8 96 h (MOLP8 cells; payload alone, MOLP8, 96 h): 12.99 nM
efflux ratio at 2 h, 10 μM (Caco-2 permeability; B-A/A-B): 9.4
Papp A→B at 2 h, 10 μM (Caco-2 permeability; apical to basolateral, 10 μM, 2 hours, read-out: Permeability, Mean, Caco-2 A-B Perm): 0.94 ×10⁻⁶ cm/s
Papp B→A at 2 h, 10 μM (Caco-2 permeability; basolateral to apical, 10 μM, 2 hours, read-out: Permeability, Mean, Caco-2 B-A Perm): 0.1 ×10⁻⁶ cm/s
Papp (PAMPA permeability): < 0.1 ×10⁻⁶ cm/s
